Source: ChEMBL document CHEMBL4602694, “Suppression of Drug-Resistant Non-Small-Cell Lung Cancer with Inhibitors Targeting Minichromosomal Maintenance Protein” (J Med Chem, 2020)
Active and inactive are the calls of the source. The rule behind the calls is not given here.

Legend:
NCI-H1975 [1] = assay: Antitumor activity against human NCI-H1975 cells xenografted in athymic nude BALB/c mouse assessed as tumor growth at 1 mg/kg, ip administered for 4 weeks (reference value: 1217 +/- 516.6 cu.mm); format: functional
NCI-H1975 [2] = assay: Induction of apoptosis in human NCI-H1975 cells xenografted in athymic nude BALB/c mouse at 1 or 4 mg/kg, ip administered for 4 weeks by hematoxylin and eosin staining based assay; format: functional, organism-based
[3] = Toxicity in athymic nude BALB/c mouse xenografted with human NCI-H1975 cells assessed as effect on serum creatinine at 1 or 4 mg/kg, ip administered for 4 weeks; format: organism-based; details: in vivo, 672 h
NCI-H1975 [4] = assay: Cell cycle arrest in human NCI-H1975 cells assessed as BrdU positive cells at 140 nM incubated for 24 hrs by BrdUrd incorporation assay (reference value: 44.5 +/- 2 %); format: functional
NCI-H1975 [5] = assay: Cell cycle arrest in human NCI-H1975 cells assessed as replication fork at 140 nM incubated for 48 hrs by DAPI staining based immunofluorescence microscopy (reference value: 176.8 +/- 8.7); format: functional
[6] = molecular target: T1, DNA replication licensing factor MCM6 (Homo sapiens) (UniProt Q14566); assay: Induction of ubiquitination of MCM6 in human NCI-H1975 cells incubated for 24 hrs by immunoblot analysis; format: cell-based
T1 sequence (whole entry): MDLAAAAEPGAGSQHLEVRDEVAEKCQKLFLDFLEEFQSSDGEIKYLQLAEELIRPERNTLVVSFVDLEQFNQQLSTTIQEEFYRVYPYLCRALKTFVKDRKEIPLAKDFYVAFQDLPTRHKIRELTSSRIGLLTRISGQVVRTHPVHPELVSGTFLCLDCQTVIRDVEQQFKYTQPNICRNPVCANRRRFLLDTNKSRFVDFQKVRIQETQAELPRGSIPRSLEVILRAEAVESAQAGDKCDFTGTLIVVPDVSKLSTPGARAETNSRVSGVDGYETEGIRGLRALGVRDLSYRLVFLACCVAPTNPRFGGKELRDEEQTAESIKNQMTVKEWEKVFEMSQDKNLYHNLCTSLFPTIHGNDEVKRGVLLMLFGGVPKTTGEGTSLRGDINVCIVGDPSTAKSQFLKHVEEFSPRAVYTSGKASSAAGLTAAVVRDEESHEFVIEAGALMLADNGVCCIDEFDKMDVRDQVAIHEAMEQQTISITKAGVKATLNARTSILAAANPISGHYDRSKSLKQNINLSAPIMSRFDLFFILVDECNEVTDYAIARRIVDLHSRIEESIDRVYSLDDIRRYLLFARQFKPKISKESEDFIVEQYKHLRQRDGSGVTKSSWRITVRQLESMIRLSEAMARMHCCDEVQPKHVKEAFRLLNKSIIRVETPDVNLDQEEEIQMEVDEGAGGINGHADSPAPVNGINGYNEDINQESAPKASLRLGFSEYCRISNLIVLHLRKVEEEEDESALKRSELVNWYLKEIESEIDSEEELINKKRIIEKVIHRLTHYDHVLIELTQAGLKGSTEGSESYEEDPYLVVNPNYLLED

[7] = molecular target: DNA replication licensing factor MCM7 (Homo sapiens) (UniProt P33993); assay: Induction of ubiquitination of MCM7 in human NCI-H1975 cells incubated for 24 hrs by immunoblot analysis; format: cell-based
DNA replication licensing factor MCM7 (Homo sapiens), sequence (P33993 whole entry): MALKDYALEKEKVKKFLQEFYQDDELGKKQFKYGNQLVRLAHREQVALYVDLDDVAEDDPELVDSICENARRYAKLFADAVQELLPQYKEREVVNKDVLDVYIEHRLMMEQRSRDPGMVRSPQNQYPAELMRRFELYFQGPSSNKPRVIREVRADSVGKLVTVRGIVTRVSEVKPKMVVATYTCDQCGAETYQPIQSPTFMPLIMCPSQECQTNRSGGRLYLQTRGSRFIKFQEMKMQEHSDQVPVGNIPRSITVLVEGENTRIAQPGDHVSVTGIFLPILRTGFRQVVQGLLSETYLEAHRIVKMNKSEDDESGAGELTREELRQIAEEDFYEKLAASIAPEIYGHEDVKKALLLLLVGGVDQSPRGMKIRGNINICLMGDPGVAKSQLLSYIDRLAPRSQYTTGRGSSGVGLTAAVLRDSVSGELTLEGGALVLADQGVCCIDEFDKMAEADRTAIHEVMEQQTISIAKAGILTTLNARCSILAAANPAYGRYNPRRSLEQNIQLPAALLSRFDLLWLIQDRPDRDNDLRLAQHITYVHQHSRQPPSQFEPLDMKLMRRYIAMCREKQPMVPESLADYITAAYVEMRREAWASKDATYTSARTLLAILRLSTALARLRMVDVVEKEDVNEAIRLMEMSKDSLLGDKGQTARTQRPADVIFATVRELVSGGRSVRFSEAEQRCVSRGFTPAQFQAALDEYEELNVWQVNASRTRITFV

[8] = molecular target: T1, DNA replication licensing factor MCM6 (Homo sapiens); assay: Induction of ubiquitination of MCM6 in human NCI-H1975 cells incubated for 48 hrs by immunoblot analysis (reference value: 1); format: cell-based
[9] = molecular target: T2, DNA replication licensing factor MCM5 (Homo sapiens) (UniProt P33992); assay: Induction of ubiquitination of MCM5 in human NCI-H1975 cells incubated for 24 hrs by immunoblot analysis (reference value: 1); format: cell-based
T2 sequence (whole entry): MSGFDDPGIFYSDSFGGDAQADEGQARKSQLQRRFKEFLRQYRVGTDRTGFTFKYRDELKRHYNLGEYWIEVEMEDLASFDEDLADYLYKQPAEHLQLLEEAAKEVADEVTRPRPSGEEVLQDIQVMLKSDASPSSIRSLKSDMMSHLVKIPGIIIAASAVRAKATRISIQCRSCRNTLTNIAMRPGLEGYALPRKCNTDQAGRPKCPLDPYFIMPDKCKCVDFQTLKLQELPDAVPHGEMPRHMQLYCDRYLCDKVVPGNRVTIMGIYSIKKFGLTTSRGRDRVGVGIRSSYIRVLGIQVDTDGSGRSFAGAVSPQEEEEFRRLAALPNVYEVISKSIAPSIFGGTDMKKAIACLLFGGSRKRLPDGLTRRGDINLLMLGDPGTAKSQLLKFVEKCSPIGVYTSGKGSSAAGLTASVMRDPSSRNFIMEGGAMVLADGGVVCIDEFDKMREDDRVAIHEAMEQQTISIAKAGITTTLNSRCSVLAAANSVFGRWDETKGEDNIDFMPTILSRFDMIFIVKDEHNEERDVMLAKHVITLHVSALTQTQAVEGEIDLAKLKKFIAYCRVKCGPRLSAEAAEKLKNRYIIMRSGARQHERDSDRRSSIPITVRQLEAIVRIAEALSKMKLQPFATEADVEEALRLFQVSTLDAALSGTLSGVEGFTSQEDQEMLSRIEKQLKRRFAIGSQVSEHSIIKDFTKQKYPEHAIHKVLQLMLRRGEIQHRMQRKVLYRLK

[10] = molecular target: DNA replication licensing factor MCM2 (Homo sapiens) (UniProt P49736); assay: Induction of ubiquitination of MCM2 in human NCI-H1975 cells in presence of MLN4924 incubated for 24 hrs followed by MLN4924 addition and measured after 6 hrs by immunoblot analysis; format: cell-based
DNA replication licensing factor MCM2 (Homo sapiens), sequence (P49736 whole entry): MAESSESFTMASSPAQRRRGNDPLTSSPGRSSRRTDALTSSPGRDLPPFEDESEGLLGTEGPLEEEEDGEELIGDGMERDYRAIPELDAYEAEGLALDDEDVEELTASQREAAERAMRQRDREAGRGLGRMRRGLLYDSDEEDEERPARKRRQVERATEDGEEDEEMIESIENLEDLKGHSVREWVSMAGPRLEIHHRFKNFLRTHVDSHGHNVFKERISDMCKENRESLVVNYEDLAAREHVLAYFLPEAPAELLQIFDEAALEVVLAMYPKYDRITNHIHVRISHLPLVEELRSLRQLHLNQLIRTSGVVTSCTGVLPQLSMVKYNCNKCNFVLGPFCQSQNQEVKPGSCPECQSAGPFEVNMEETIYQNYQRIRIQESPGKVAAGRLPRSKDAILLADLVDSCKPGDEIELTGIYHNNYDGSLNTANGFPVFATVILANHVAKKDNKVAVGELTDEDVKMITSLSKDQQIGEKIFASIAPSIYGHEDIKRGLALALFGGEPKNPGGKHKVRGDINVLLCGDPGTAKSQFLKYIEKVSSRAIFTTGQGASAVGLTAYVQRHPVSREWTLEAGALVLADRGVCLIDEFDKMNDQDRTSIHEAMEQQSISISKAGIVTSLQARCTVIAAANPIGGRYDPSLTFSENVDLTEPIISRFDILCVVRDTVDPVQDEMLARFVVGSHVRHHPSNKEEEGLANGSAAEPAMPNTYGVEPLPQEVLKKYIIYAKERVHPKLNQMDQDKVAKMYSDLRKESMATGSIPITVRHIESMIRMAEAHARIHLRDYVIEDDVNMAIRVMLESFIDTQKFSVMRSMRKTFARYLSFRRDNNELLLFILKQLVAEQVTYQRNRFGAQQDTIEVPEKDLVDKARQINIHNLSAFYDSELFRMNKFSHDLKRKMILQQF

Activity [6]: Dose-dependent effect | Activity [7]: Dose-dependent effect | Activity [8]: 0.4 | Activity [9]: 0.8 | Activity [10]: inactive
SMILES: Cc1oc2c(c1C(=O)NCCCn1ccnc1)C(=O)c1ccccc1C2=O
Activity (NCI-H1975 [1]): 701.2 mm3 | Activity (NCI-H1975 [2]): Active | Activity [3]: Non-Toxic | Activity (NCI-H1975 [4]): 27.7% | Activity (NCI-H1975 [5]): 48.8
